Experimental data from patent publication US20260035359A1, “HERBICIDAL IMIDAZOLE COMPOUNDS” (SYNGENTA CROP PROTECTION AG, priority 2022, published 2026).

What was measured:
Type in all cases: in vivo
[1] = test system: Ipomoea hederacea (IPOHE); experiment: Post-emergence herbicidal glasshouse test; conditions: 250 g/ha, sprayed after 8 days cultivation, evaluated after 13 days
Procedure: (§1) Seeds of a variety of test species are sown in standard soil in pots Amaranthus pa/meri (AMAPA), Amaranthus retoflexus (AMARE), Echinochloa crus-gali (ECHCG), Ipomoea hederacea (IPOHE), Setaria faberi (SETFA). After cultivation for one day (pre-emergence) or after 8 days cultivation (post-emergence) under controlled conditions in a glasshouse (at 24/16° C., day/night; 14 hours light; 65% humidity), the plants are sprayed with an aqueous spray solution derived from the formulation of the technical active ingredient in acetone/water (50:50) solution containing 0.5% Tween 20 (polyoxyethelyene sorbitan monolaurate, CAS RN 9005-64-5). Compounds are applied at 250 g/ha unless otherwise stated. The test plants are then grown in a glasshouse under controlled conditions in a glasshouse (at 24/16° C., day/night; 14 hours light; 65% humidity) and watered twice daily. After 13 days for pre and post-emergence, the test is evaluated for the percentage damage caused to the plant. The biological activities are shown in the following table on a five-point scale (5=81-100%; 4=61-80%; 3=41-60%; 2=21-40%; 1=0-20%).

[2] = test system: Echinochloa crus-gali (ECHCG); experiment: Post-emergence herbicidal glasshouse test; conditions: 250 g/ha, sprayed after 8 days cultivation, evaluated after 13 days
Procedure: as §1

[3] = test system: Amaranthus retoflexus (AMARE); experiment: Post-emergence herbicidal glasshouse test; conditions: 250 g/ha, sprayed after 8 days cultivation, evaluated after 13 days
Procedure: as §1

Setaria faberi (SETFA) [4] = experiment: Post-emergence herbicidal glasshouse test; conditions: 250 g/ha, sprayed after 8 days cultivation, evaluated after 13 days
Procedure: as §1

[5] = test system: Amaranthus pa/meri (AMAPA); experiment: Post-emergence herbicidal glasshouse test; conditions: 250 g/ha, sprayed after 8 days cultivation, evaluated after 13 days
Procedure: as §1

[6] = test system: Ipomoea hederacea (IPOHE); experiment: Pre-emergence herbicidal glasshouse test; conditions: 250 g/ha, sprayed after one day cultivation, evaluated after 13 days
Procedure: as §1

[7] = test system: Echinochloa crus-gali (ECHCG); experiment: Pre-emergence herbicidal glasshouse test; conditions: 250 g/ha, sprayed after one day cultivation, evaluated after 13 days
Procedure: as §1

[8] = test system: Amaranthus retoflexus (AMARE); experiment: Pre-emergence herbicidal glasshouse test; conditions: 250 g/ha, sprayed after one day cultivation, evaluated after 13 days
Procedure: as §1

Setaria faberi (SETFA) [9] = experiment: Pre-emergence herbicidal glasshouse test; conditions: 250 g/ha, sprayed after one day cultivation, evaluated after 13 days
Procedure: as §1

[10] = test system: Amaranthus pa/meri (AMAPA); experiment: Pre-emergence herbicidal glasshouse test; conditions: 250 g/ha, sprayed after one day cultivation, evaluated after 13 days
Procedure: as §1

Row | Structure (SMILES) | percentage damage caused to the plant, IPOHE [1] | percentage damage caused to the plant, ECHCG [2] | percentage damage caused to the plant, AMARE [3] | percentage damage caused to the plant, SETFA (Setaria faberi (SETFA) [4]) | percentage damage caused to the plant, AMAPA [5] | percentage damage caused to the plant, IPOHE [6] | percentage damage caused to the plant, ECHCG [7] | percentage damage caused to the plant, AMARE [8] | percentage damage caused to the plant, SETFA (Setaria faberi (SETFA) [9]) | percentage damage caused to the plant, AMAPA [10]
1 | CC(C)Cc1nc(C(F)(F)F)cn1Cc1ncc(Cl)cn1 [Compound 1.021] | 3 (3=41-60%) | 1 (1=0-20%) | 3 (3=41-60%) | 1 (1=0-20%) | 3 (3=41-60%) | 4 (4=61-80%) | 1 (1=0-20%) | 3 (3=41-60%) | 1 (1=0-20%) | 5 (5=81-100%)
2 | FC(F)(F)CCCc1nc(Cl)cn1Cc1ncc(Cl)cn1 [Compound 1.001, 5-chloro-2-[[4-chloro-2-(4,4,4-trifluorobutyl)imidazol-1-yl]methyl]pyrimidine] | 2 (2=21-40%) | 1 (1=0-20%) | 2 (2=21-40%) | 1 (1=0-20%) | 2 (2=21-40%) | 1 (1=0-20%) | 1 (1=0-20%) | 1 (1=0-20%) | 1 (1=0-20%) | 2 (2=21-40%)
3 | CCCCc1nc(C(F)(F)F)cn1Cc1ncc(Cl)cn1 [Compound 1.026] | 4 (4=61-80%) | 2 (2=21-40%) | 5 (5=81-100%) | 2 (2=21-40%) | 5 (5=81-100%) | 3 (3=41-60%) | 3 (3=41-60%) | 5 (5=81-100%) | 5 (5=81-100%) | 5 (5=81-100%)
4 | COCc1nc(C(F)(F)F)cn1Cc1ncc(Cl)cn1 [Compound 1.023] | 2 (2=21-40%) | 1 (1=0-20%) | 1 (1=0-20%) | 1 (1=0-20%) | 1 (1=0-20%) | 1 (1=0-20%) | 1 (1=0-20%) | 2 (2=21-40%) | 1 (1=0-20%) | 2 (2=21-40%)
5 | C=CCCc1nc(C(F)(F)F)cn1Cc1ncc(Cl)cn1 [Compound 1.020, 2-[[2-but-3-enyl-4-(trifluoromethyl)imidazol-1-yl]methyl]-5-chloro-pyrimidine] | 2 (2=21-40%) | 2 (2=21-40%) | 3 (3=41-60%) | 1 (1=0-20%) | 2 (2=21-40%) | 4 (4=61-80%) | 5 (5=81-100%) | 5 (5=81-100%) | 4 (4=61-80%) | 5 (5=81-100%)
6 | N#CC1(c2nc(C(F)(F)F)cn2Cc2ncc(Cl)cn2)CC1 [Compound 1.060] | 2 (2=21-40%) | 1 (1=0-20%) | 2 (2=21-40%) | 1 (1=0-20%) | 2 (2=21-40%) | 3 (3=41-60%) | 1 (1=0-20%) | 2 (2=21-40%) | 1 (1=0-20%) | 2 (2=21-40%)
7 | FC(F)COCc1nc(C(F)(F)F)cn1Cc1ncc(Cl)cn1 [Compound 1.022] | 3 (3=41-60%) | 1 (1=0-20%) | 3 (3=41-60%) | 1 (1=0-20%) | 3 (3=41-60%) | 4 (4=61-80%) | 1 (1=0-20%) | 3 (3=41-60%) | 1 (1=0-20%) | 2 (2=21-40%)
8 | CS(=O)(=O)CCc1nc(C(F)(F)F)cn1Cc1ncc(Cl)cn1 [Compound 1.048] | 4 (4=61-80%) | 1 (1=0-20%) | 4 (4=61-80%) | 1 (1=0-20%) | 4 (4=61-80%) | 5 (5=81-100%) | 1 (1=0-20%) | 5 (5=81-100%) | 1 (1=0-20%) | 4 (4=61-80%)
9 | FC(F)c1nc(C(F)(F)F)cn1Cc1ncc(Cl)cn1 [Compound 1.070, 5-chloro-2-[[2-(difluoromethyl)-4-(trifluoromethyl)imidazol-1-yl]methyl]pyrimidine] | 2 (2=21-40%) | 1 (1=0-20%) | 1 (1=0-20%) | 1 (1=0-20%) | 1 (1=0-20%) | 3 (3=41-60%) | 1 (1=0-20%) | 5 (5=81-100%) | 1 (1=0-20%) | 5 (5=81-100%)
10 | CCCCc1nc(C=NOC)cn1Cc1ncc(Cl)cn1 (single isomer, unassigned) [Compound 1.076, 1-[2-butyl-1-[(5-chloropyrimidin-2-yl)methyl]imidazol-4-yl]-N-methoxy-methanimine] | 1 (1=0-20%) | 1 (1=0-20%) | 1 (1=0-20%) |  | 1 (1=0-20%) | 1 (1=0-20%) | 1 (1=0-20%) | 1 (1=0-20%) |  | 1 (1=0-20%)
11 | CCCCCc1nc(C(F)(F)F)cn1Cc1ncc(C#N)cn1 [Compound 1.015] | 3 (3=41-60%) | 1 (1=0-20%) | 2 (2=21-40%) |  | 1 (1=0-20%) | 2 (2=21-40%) | 1 (1=0-20%) | 4 (4=61-80%) |  | 4 (4=61-80%)
12 | CCCCc1nc(C(F)(F)F)cn1Cc1ccc(Cl)cn1 [Compound 1.055] | 1 (1=0-20%) | 1 (1=0-20%) | 1 (1=0-20%) |  | 1 (1=0-20%) | 3 (3=41-60%) | 1 (1=0-20%) | 1 (1=0-20%) |  | 1 (1=0-20%)
